Data published in publication PMC7723751 (Bioorganic chemistry, 2020).

Assays:
human FAAH enzyme = molecular target: T1, human FAAH enzyme (Homo sapiens, UniProt O00519); assay: Human FAAH enzyme inhibition assay; type: biochemical
T1 sequence (O00519 1-579): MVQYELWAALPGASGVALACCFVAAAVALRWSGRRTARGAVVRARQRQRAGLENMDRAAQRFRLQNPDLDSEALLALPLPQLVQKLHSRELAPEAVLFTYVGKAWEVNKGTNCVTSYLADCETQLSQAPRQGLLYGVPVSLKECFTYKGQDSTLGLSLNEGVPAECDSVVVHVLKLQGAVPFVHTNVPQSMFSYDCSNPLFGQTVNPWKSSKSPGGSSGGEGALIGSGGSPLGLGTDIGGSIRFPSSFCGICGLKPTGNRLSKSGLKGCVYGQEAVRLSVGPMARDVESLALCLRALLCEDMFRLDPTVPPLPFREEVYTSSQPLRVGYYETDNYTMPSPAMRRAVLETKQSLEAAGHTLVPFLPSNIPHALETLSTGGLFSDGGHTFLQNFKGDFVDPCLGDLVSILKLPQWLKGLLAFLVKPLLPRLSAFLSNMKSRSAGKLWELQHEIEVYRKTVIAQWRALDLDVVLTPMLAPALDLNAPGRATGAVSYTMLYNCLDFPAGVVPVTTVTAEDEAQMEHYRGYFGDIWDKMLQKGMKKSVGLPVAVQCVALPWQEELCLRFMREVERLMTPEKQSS

Human sEH = molecular target: T2, Human sEH (Homo sapiens, UniProt P34913); assay: Human sEH inhibition assay; type: biochemical; conditions: sEH IC50, human sEH 1 nM, CMNPC 5 μM, pH 7.0, 30 °C
T2 sequence (P34913 1-555): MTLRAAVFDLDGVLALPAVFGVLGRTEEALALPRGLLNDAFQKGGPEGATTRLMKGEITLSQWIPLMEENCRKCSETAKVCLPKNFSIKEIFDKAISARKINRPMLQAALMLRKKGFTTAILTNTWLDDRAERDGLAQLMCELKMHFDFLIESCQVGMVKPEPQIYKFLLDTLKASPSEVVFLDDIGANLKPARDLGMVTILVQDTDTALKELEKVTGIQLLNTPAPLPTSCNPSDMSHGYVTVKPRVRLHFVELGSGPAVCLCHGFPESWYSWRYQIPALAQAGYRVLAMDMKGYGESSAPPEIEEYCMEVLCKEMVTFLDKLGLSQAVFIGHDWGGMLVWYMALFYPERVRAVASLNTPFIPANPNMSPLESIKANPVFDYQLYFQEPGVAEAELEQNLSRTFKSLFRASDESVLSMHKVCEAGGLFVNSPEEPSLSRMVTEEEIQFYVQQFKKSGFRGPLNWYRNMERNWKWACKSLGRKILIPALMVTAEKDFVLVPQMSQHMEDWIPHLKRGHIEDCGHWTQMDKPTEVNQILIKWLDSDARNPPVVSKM

Row | SMILES | IC50 (human FAAH enzyme) [nM] | IC50 (Human sEH) [nM]
1 | Cc1ccc(S(=O)(=O)N2CCC(C(=O)Nc3ccc(-c4nc5ccccc5s4)cc3)CC2)cc1 [Compound 4-17, N-(4-(benzo[d]thiazol-2-yl)phenyl)-1-tosylpiperidine-4-carboxamide] | > 10000 | 370
2 | COc1ccccc1S(=O)(=O)N1CCC(C(=O)Nc2ccc(-c3nc4ccccc4s3)cc2)CC1 [Compound 4-8, N-(4-(benzo[d]thiazol-2-yl)phenyl)-1-((2-methoxyphenyl)sulfonyl)piperidine-4-carboxamide] | 80 | 26
3 | O=C(Nc1ccc(-c2nc3ccccc3s2)cc1)C1CCN(S(=O)(=O)c2ccccc2F)CC1 [Compound 4-4, N-(4-(benzo[d]thiazol-2-yl)phenyl)-1-((2-fluorophenyl)sulfonyl)piperidine-4-carboxamide] | 1.3 | 150
4 | O=C(Nc1ccc(-c2nc3ccccc3s2)cc1)C1CCN(S(=O)(=O)c2cccc(Br)c2)CC1 [Compound 4-11, N-(4-(benzo[d]thiazol-2-yl)phenyl)-1-((3-bromophenyl)sulfonyl)piperidine-4-carboxamide] | 51.6 | 1100
5 | Cc1cccc(S(=O)(=O)N2CCC(C(=O)Nc3ccc(-c4nc5ccccc5s4)cc3)CC2)c1 [Compound 4-12, N-(4-(benzo[d]thiazol-2-yl)phenyl)-1-(m-tolylsulfonyl)piperidine-4-carboxamide] | 7 | 940
6 | O=C(Nc1ccc(-c2nc3ccccc3s2)cc1)C1CCN(S(=O)(=O)c2cccs2)CC1 [Compound 4-1, N-(4-(benzo[d]thiazol-2-yl)phenyl)-1-(thiophen-2-ylsulfonyl)piperidine-4-carboxamide] | 16 | 420
7 | O=C(Nc1ccc(-c2nc3ccccc3s2)cc1)C1CCN(S(=O)(=O)c2ccccc2Br)CC1 [Compound 4-6, N-(4-(benzo[d]thiazol-2-yl)phenyl)-1-((2-bromophenyl)sulfonyl)piperidine-4-carboxamide] | 6.1 | 24
8 | O=C(Nc1ccc(-c2nc3ccccc3s2)cc1)C1CCN(S(=O)(=O)c2ccc(F)cc2)CC1 [Compound 4-14, N-(4-(benzo[d]thiazol-2-yl)phenyl)-1-((4-fluorophenyl)sulfonyl)piperidine-4-carboxamide] | 77 | 1300
9 | O=C(Nc1ccc(-c2nc3ccccc3s2)cc1)C1CCN(S(=O)(=O)c2cc(Br)c(Cl)s2)CC1 [Compound 4-2, N-(4-(benzo[d]thiazol-2-yl)phenyl)-1-((4-bromo-5-chlorothiophen-2-yl)sulfonyl)piperidine-4-carboxamide] | 2700 | 5900
10 | O=C(Nc1ccc(-c2nc3ccccc3s2)cc1)C1CCN(S(=O)(=O)c2ccc(Cl)cc2)CC1 [Compound 4-15, N-(4-(benzo[d]thiazol-2-yl)phenyl)-1-((4-chlorophenyl)sulfonyl)piperidine-4-carboxamide] | 260 | 710
11 | O=C(Nc1ccc(-c2nc3ccccc3s2)cc1)C1CCN(S(=O)(=O)c2cccc(Cl)c2)CC1 [Compound 4-10, N-(4-(benzo[d]thiazol-2-yl)phenyl)-1-((3-chlorophenyl)sulfonyl)piperidine-4-carboxamide] | 7.2 | 2400
12 | COc1cccc(S(=O)(=O)N2CCC(C(=O)Nc3ccc(-c4nc5ccccc5s4)cc3)CC2)c1 [Compound 4-13, N-(4-(benzo[d]thiazol-2-yl)phenyl)-1-((3-methoxyphenyl)sulfonyl)piperidine-4-carboxamide] | 14.6 | 620
13 | O=C(Nc1ccc(-c2nc3ccccc3s2)cc1)C1CCN(S(=O)(=O)c2cccc(F)c2)CC1 [Compound 4-9, N-(4-(benzo[d]thiazol-2-yl)phenyl)-1-((3-fluorophenyl)sulfonyl)piperidine-4-carboxamide] | 13.4 | 1700
14 | O=C(Nc1ccc(-c2nc3ccccc3s2)cc1)C1CCN(S(=O)(=O)c2ccccc2)CC1 [Compound 4-3, N-(4-(benzo[d]thiazol-2-yl)phenyl)-1-(phenylsulfonyl)piperidine-4-carboxamide] | 8.6 | 1100
15 | O=C(Nc1ccc(-c2nc3ccccc3s2)cc1)C1CCN(S(=O)(=O)c2ccc(Br)cc2)CC1 [Compound 4-16, N-(4-(benzo[d]thiazol-2-yl)phenyl)-1-((4-bromophenyl)sulfonyl)piperidine-4-carboxamide] | 185 | 580
16 | Cc1ccccc1S(=O)(=O)N1CCC(C(=O)Nc2ccc(-c3nc4ccccc4s3)cc2)CC1 [Compound 4-7, N-(4-(benzo[d]thiazol-2-yl)phenyl)-1-(o-tolylsulfonyl)piperidine-4-carboxamide] | 9.6 | 35

The next lines start with the values.

Row | IC50 (human FAAH enzyme) [nM] | IC50 (Human sEH) [nM] | SMILES
17 | > 10000 | 84 | COc1ccc(S(=O)(=O)N2CCC(C(=O)Nc3ccc(-c4nc5ccccc5s4)cc3)CC2)cc1 [Compound 4-18, N-(4-(benzo[d]thiazol-2-yl)phenyl)-1-((4-methoxyphenyl)sulfonyl)piperidine-4-carboxamide]
18 | > 10000 | 1100 | O=C(Nc1ccc(-c2nc3ccccc3s2)cc1)C1CCN(S(=O)(=O)c2cc(F)cc(F)c2)CC1 [Compound 4-24, N-(4-(benzo[d]thiazol-2-yl)phenyl)-1-((3,5-difluorophenyl)sulfonyl)piperidine-4-carboxamide]
19 | 84 | 790 | Cc1cc(C)c(S(=O)(=O)N2CCC(C(=O)Nc3ccc(-c4nc5ccccc5s4)cc3)CC2)c(C)c1 [Compound 4-28, N-(4-(benzo[d]thiazol-2-yl)phenyl)-1-(mesitylsulfonyl)piperidine-4-carboxamide]
20 | 10 | 36 | O=C(Nc1ccc(-c2nc3ccccc3s2)cc1)C1CCN(S(=O)(=O)c2ccc(Br)cc2Br)CC1 [Compound 4-21, N-(4-(benzo[d]thiazol-2-yl)phenyl)-1-((2,4-dibromophenyl)sulfonyl)piperidine-4-carboxamide]
21 | > 10000 | 3600 | Cc1cc(C)cc(S(=O)(=O)N2CCC(C(=O)Nc3ccc(-c4nc5ccccc5s4)cc3)CC2)c1 [Compound 4-25, N-(4-(benzo[d]thiazol-2-yl)phenyl)-1-((3,5-dimethylphenyl)sulfonyl)piperidine-4-carboxamide]
22 | 36.2 | 180 | COc1ccc(S(=O)(=O)N2CCC(C(=O)Nc3ccc(-c4nc5ccccc5s4)cc3)CC2)c(OC)c1 [Compound 4-23, N-(4-(benzo[d]thiazol-2-yl)phenyl)-1-((2,4-dimethoxyphenyl)sulfonyl)piperidine-4-carboxamide]
23 | 5.5 | 29.2 | Cc1ccc(S(=O)(=O)N2CCC(C(=O)Nc3ccc(-c4nc5ccccc5s4)cc3)CC2)c(C)c1 [Compound 4-22, N-(4-(benzo[d]thiazol-2-yl)phenyl)-1-((2,4-dimethylphenyl)sulfonyl)piperidine-4-carboxamide]
24 | 11.4 | 195 | O=C(Nc1ccc(-c2nc3ccccc3s2)cc1)C1CCN(S(=O)(=O)c2ccc(F)cc2F)CC1 [Compound 4-19, N-(4-(benzo[d]thiazol-2-yl)phenyl)-1-((2,4-difluorophenyl)sulfonyl)piperidine-4-carboxamide]
25 | 250 | 6600 | O=C(Nc1ccc(-c2nc3ccccc3s2)cc1)C1CCN(S(=O)(=O)c2c(F)cc(F)cc2F)CC1 [Compound 4-26, N-(4-(benzo[d]thiazol-2-yl)phenyl)-1-((2,4,6-trifluorophenyl)sulfonyl)piperidine-4-carboxamide]
26 | 270 | 1300 | O=C(Nc1ccc(-c2nc3ccccc3s2)cc1)C1CCN(S(=O)(=O)c2c(Cl)cc(Cl)cc2Cl)CC1 [Compound 4-27, N-(4-(benzo[d]thiazol-2-yl)phenyl)-1-((2,4,6-trichlorophenyl)sulfonyl)piperidine-4-carboxamide]
27 | > 10000 | 2670 | O=C(Nc1ccc(-c2nc3ccccc3s2)cc1)C1CCN(S(=O)(=O)c2c(F)c(F)c(F)c(F)c2F)CC1 [Compound 4-30, N-(4-(benzo[d]thiazol-2-yl)phenyl)-1-((perfluorophenyl)sulfonyl)piperidine-4-carboxamide]
28 | 2230 | 840 | CC(C)c1cc(C(C)C)c(S(=O)(=O)N2CCC(C(=O)Nc3ccc(-c4nc5ccccc5s4)cc3)CC2)c(C(C)C)c1 [Compound 4-29, N-(4-(benzo[d]thiazol-2-yl)phenyl)-1-((2,4,6-triisopropylphenyl)sulfonyl)piperidine-4-carboxamide]
